How the values were obtained:
sugar beet = assay: Test B pre/postemergence sugar beet; format: in vivo, Beta vulgaris; conditions: for Plant response rating, Sugarbeets: Postemergence
How it was run: (§1)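 Herbicidal effect was estimated by eye on a ten-point control scale after plants spent twelve to sixteen days in a greenhouse following soil or foliar treatment. Foliar sprays targeted plants at one to four leaves; all doses were formulated in a non-phytotoxic solvent with surfactant.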

surinam grass = assay: Test B pre/postemergence surinam grass; format: in vivo, Brachiaria decumbens
How it was run: as §1

bamyardgrass = assay: Test B flood test barnyardgrass; format: in vivo, Echinochloa crus-galli
How it was run: (§2)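 Plants were grown to the 2-leaf stage before treatment with test chemical, then held in a greenhouse for twelve to sixteen days. Injury was visually rated against untreated controls on a 0–10 scale, where 0 is no effect and 10 is complete control.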

giant foxtail = assay: Test B pre/postemergence giant foxtail; format: in vivo, Setaria faberii
How it was run: as §1

duck salad = assay: Test B flood test duck salad; format: in vivo, Heteranthera limosa
How it was run: as §2

wheat = assay: Test B pre/postemergence wheat; format: in vivo, Triticum aestivum; conditions: for Plant response rating, Wheat: Postemergence
How it was run: as §1

cocklebur = assay: Test B pre/postemergence cocklebur; format: in vivo, Xanthium strumarium
How it was run: as §1

smallflower flatsedge = assay: Test B flood test smallflower flatsedge; format: in vivo, Cyperus difformis
How it was run: as §2

pigweed = assay: Test B pre/postemergence pigweed; format: in vivo, Amaranthus retroflexus; conditions: for Plant response rating, Redroot pigweed: Postemergence
How it was run: as §1

morningglory = assay: Test B pre/postemergence morningglory; format: in vivo, Ipomoea hederacea
How it was run: as §1

bedstraw = assay: Test B pre/postemergence bedstraw; format: in vivo, Galium aparine
How it was run: as §1

soybean = assay: Test B pre/postemergence soybean; format: in vivo, Glycine max; conditions: for Plant response rating, Soybean: Postemergence; for Plant response rating, Soybean / Soybean plant response rating: scale of 0 to 10 where 0 is no effect and 10 is complete control
How it was run: as §1

wild oat = assay: Test B pre/postemergence wild oat; format: in vivo, Avena fatua; conditions: for Plant response rating, Wild oats: Postemergence
How it was run: as §1

purple nutsedge = assay: Test B pre/postemergence purple nutsedge; format: in vivo, Cyperus rotundus
How it was run: as §1

blackgrass = assay: Test B pre/postemergence blackgrass; format: in vivo, Alopecurus myosuroides
How it was run: as §1

rape = assay: Test B pre/postemergence rape; format: in vivo, Brassica napus
How it was run: as §1

[1] = Rate 125 g/ha, scale of 0 to 10 where 0 is no effect and 10 is complete control
[2] = Rate 500 g/ha, scale of 0 to 10 where 0 is no effect and 10 is complete control
[3] = Preemergence, Rate 62 g/ha, scale 0 to 10 (0 no effect, 10 complete control)
[4] = Preemergence, Rate 125 g/ha, scale of 0 to 10 where 0 is no effect and 10 is complete control
[5] = Preemergence, Rate 500 g/ha, scale of 0 to 10 where 0 is no effect and 10 is complete control
[6] = Rate 250 g/ha, scale of 0 to 10 where 0 is no effect and 10 is complete control
[7] = Postemergence, Rate 62 g/ha, scale of 0 to 10, 0 is no effect, 10 is complete control
[8] = Postemergence, Rate 125 g/ha, scale of 0 to 10 where 0 is no effect and 10 is complete control
[9] = Postemergence, Rate 500 g/ha, scale of 0 to 10 where 0 is no effect and 10 is complete control
[10] = Rate 250 g/ha, Postemergence, scale of 0 to 10 where 0 is no effect and 10 is complete control
[11] = Rate 62 g/ha, flood test species, Pre-emergence, visual evaluation after twelve to sixteen days
[12] = Rate 125 g/ha, under heading Pre-emergence, flood test species, visual evaluation after twelve to sixteen days
[13] = Rate 250 g/ha, Pre-emergence (flood test species), scale 0 to 10, 0 is no effect, 10 is complete control
[14] = Rate 500 g/ha, Pre-emergence section of Table B, 0 to 10 scale (0 no effect, 10 complete control)

## CC(C)N(C(=O)n1oc(=O)n(CC2CCC2)c1=O)c1ccccc1 [Compound 580]
Sugar beet; [1]
  Plant response rating, Sugarbeets: 4
Sugar beet; [2]
  Plant response rating, Sugarbeets: 6
Sugar beet; [3]
  Sugarbeets plant response rating: 0
Sugar beet; [4]
  Sugarbeets plant response rating: 0
Sugar beet; Preemergence, Rate 250 g/ha
  Sugarbeets plant response rating (0 to 10 scale): 4
Sugar beet; [5]
  Sugarbeets plant response rating: 5
Sugar beet; [6]
  Plant response rating, Sugarbeets: 5
Surinam grass; [7]
  B. signalgrass plant response rating: 0
Surinam grass; [8]
  Plant response rating, B. signalgrass: 2
Surinam grass; [9]
  Plant response rating, B. signalgrass: 8
Surinam grass; [3]
  B. signalgrass plant response rating: 2
Surinam grass; [4]
  B. signalgrass plant response rating: 6
Surinam grass; Preemergence, Rate 250 g/ha
  B. signalgrass plant response rating (0 to 10 scale, 0 is no effect, 10 is complete control): 6
Surinam grass; [5]
  B. signalgrass plant response rating: 9
Surinam grass; [10]
  Plant response rating, B. signalgrass: 5
bamyardgrass; [11]
  Plant response rating, Barnyardgrass (0 to 10 scale, 0 is no effect, 10 is complete control): 0
bamyardgrass; [12]
  Barnyardgrass plant response rating (0 to 10 scale, 0 is no effect, 10 is complete control): 0
bamyardgrass; [13]
  Barnyardgrass plant response rating: 0
bamyardgrass; [14]
  Barnyardgrass plant response rating: 0
Giant foxtail; [7]
  Giant foxtail plant response rating: 0
Giant foxtail; [8]
  Plant response rating, Giant foxtail: 6
Giant foxtail; [9]
  Plant response rating, Giant foxtail: 8
Giant foxtail; [3]
  Giant foxtail plant response rating: 9
Giant foxtail; [4]
  Giant foxtail plant response rating: 9
Giant foxtail; Preemergence, Rate 250 g/ha
  Giant foxtail plant response rating (0 to 10 scale): 10
Giant foxtail; [5]
  Giant foxtail plant response rating: 10
Giant foxtail; [10]
  Plant response rating, Giant foxtail: 8
Duck salad; [11]
  Plant response rating, Ducksalad (0 to 10 scale, 0 is no effect, 10 is complete control): 0
Duck salad; [12]
  Ducksalad plant response rating (0 to 10 scale, 0 is no effect, 10 is complete control): 0
Duck salad; [13]
  Ducksalad plant response rating: 0
Duck salad; [14]
  Ducksalad plant response rating: 0
wheat; [1]
  Plant response rating, Wheat: 0
wheat; [2]
  Plant response rating, Wheat: 3
wheat; [3]
  Wheat plant response rating: 0
wheat; [4]
  Wheat plant response rating: 0
wheat; Preemergence, Rate 250 g/ha
  Wheat plant response rating (0 to 10 scale): 2
wheat; [5]
  Wheat plant response rating: 5
wheat; [6]
  Plant response rating, Wheat: 0
cocklebur; [7]
  Cocklebur plant response rating: 3
cocklebur; [8]
  Plant response rating, Cocklebur: 3
cocklebur; [9]
  Plant response rating, Cocklebur: 6
cocklebur; [3]
  Cocklebur plant response rating: 0
cocklebur; [4]
  Cocklebur plant response rating: 0
cocklebur; Preemergence, Rate 250 g/ha
  Cocklebur plant response rating (0 to 10 scale): 0
cocklebur; [5]
  Cocklebur plant response rating: 3
cocklebur; [10]
  Plant response rating, Cocklebur: 3
Smallflower flatsedge; [11]
  Plant response rating, S. Flatsedge (0 to 10 scale, 0 is no effect, 10 is complete control): 0
Smallflower flatsedge; [12]
  S. Flatsedge plant response rating (0 to 10 scale, 0 is no effect, 10 is complete control): 0
Smallflower flatsedge; [13]
  S. Flatsedge plant response rating: 0
Smallflower flatsedge; [14]
  S. Flatsedge plant response rating: 0
pigweed; [1]
  Plant response rating, Redroot pigweed: 5
pigweed; [2]
  Plant response rating, Redroot pigweed: 9
pigweed; [3]
  Redroot pigweed plant response rating: 9
pigweed; [4]
  Redroot pigweed plant response rating: 10
pigweed; Preemergence, Rate 250 g/ha
  Redroot pigweed plant response rating (0 to 10 scale): 10
pigweed; [5]
  Redroot pigweed plant response rating: 10
pigweed; [6]
  Plant response rating, Redroot pigweed: 5
morningglory; [7]
  Morningglory plant response rating: 7
morningglory; [8]
  Plant response rating, Morningglory: 7
morningglory; [9]
  Plant response rating, Morningglory: 10
morningglory; [3]
  Morningglory plant response rating: 0
morningglory; [4]
  Morningglory plant response rating: 0
morningglory; Preemergence, Rate 250 g/ha
  Morningglory plant response rating (0 to 10 scale): 0
morningglory; [5]
  Morningglory plant response rating: 0
morningglory; [10]
  Plant response rating, Morningglory: 8
bedstraw; [7]
  Bedstraw plant response rating: 3
bedstraw; [9]
  Plant response rating, Bedstraw: 9
bedstraw; [3]
  Bedstraw plant response rating: 0
bedstraw; [4]
  Bedstraw plant response rating: 4
bedstraw; Preemergence, Rate 250 g/ha
  Bedstraw plant response rating (0 to 10 scale): 6
bedstraw; [5]
  Bedstraw plant response rating: 6
bedstraw; [10]
  Plant response rating, Bedstraw: 0
soybean; Rate 125 g/ha
  Plant response rating, Soybean: 4
soybean; Rate 500 g/ha
  Plant response rating, Soybean: 4
soybean; Preemergence, Rate 125 g/ha
  Soybean plant response rating: 0
soybean; Preemergence, Rate 250 g/ha
  Soybean plant response rating (0 to 10 scale): 0
soybean; Preemergence, Rate 500 g/ha
  Soybean plant response rating: 0
soybean; Rate 250 g/ha
  Plant response rating, Soybean: 4
Wild oat; [1]
  Plant response rating, Wild oats: 0
Wild oat; [2]
  Plant response rating, Wild oats: 7
Wild oat; [3]
  Wild oats plant response rating: 0
Wild oat; [4]
  Wild oats plant response rating: 0
Wild oat; Preemergence, Rate 250 g/ha
  Wild oats plant response rating (0 to 10 scale): 2
Wild oat; [5]
  Wild oats plant response rating: 5
Wild oat; [6]
  Plant response rating, Wild oats: 3
Purple nutsedge; [7]
  Nutsedge plant response rating: 0
Purple nutsedge; [8]
  Plant response rating, Nutsedge: 0
Purple nutsedge; [3]
  Nutsedge plant response rating: 0
Purple nutsedge; [4]
  Nutsedge plant response rating: 0
Purple nutsedge; Preemergence, Rate 250 g/ha
  Nutsedge plant response rating (0 to 10 scale): 0
Purple nutsedge; [5]
  Nutsedge plant response rating: 5
blackgrass; [7]
  Blackgrass plant response rating: 2
blackgrass; [8]
  Plant response rating, Blackgrass: 6
blackgrass; [9]
  Plant response rating, Blackgrass: 7
blackgrass; [3]
  Blackgrass plant response rating: 0
blackgrass; [4]
  Blackgrass plant response rating: 3
blackgrass; Preemergence, Rate 250 g/ha
  Blackgrass plant response rating (0 to 10 scale): 7
blackgrass; [5]
  Blackgrass plant response rating: 7
blackgrass; [10]
  Plant response rating, Blackgrass: 7
rape; [7]
  Rape plant response rating: 4
rape; [8]
  Plant response rating, Rape: 6
rape; [9]
  Plant response rating, Rape: 8
rape; [3]
  Rape plant response rating: 0
rape; [4]
  Rape plant response rating: 3
rape; Preemergence, Rate 250 g/ha
  Rape plant response rating (0 to 10 scale): 7
rape; [5]
  Rape plant response rating: 8
rape; [10]
  Plant response rating, Rape: 7

Source: patent US6737383B1, “Herbicidal oxadiazolidines” (priority 1999, dated 2004)
